Measurements published in US10745392B2, “Benzenesulfonamide compounds and their use as therapeutic agents” (Xenon Pharmaceuticals Inc., priority 2018, dated 2020).
Like-named read-outs stand apart in the source and are kept apart here.

Key:
NaV1.5 [1] = biological target: T1, NaV1.5 (Homo sapiens (Human), UniProt Q14524); test: Sodium Influx Assay (Flux) NaV1.5
NaV1.1 = NaV1.1 (Homo sapiens (Human), UniProt P35498); test: Sodium Influx Assay (Flux) NaV1.1; assay type: cell-based; details: Trex HEK293 cells, ANG2 dye, inhibition of sodium ion influx
NaV1.6 = NaV1.6 (Homo sapiens (Human), UniProt Q9UQD0); test: Sodium Influx Assay (Flux) NaV1.6; assay type: cell-based; details: Trex HEK293 cells, ANG2 dye, inhibition of sodium ion influx
NaV1.5 [2] = biological target: T1, NaV1.5
[3] = read-out: Flux NaV1.5 IC50, Trex HEK293 cells, ANG2 dye, inhibition of sodium ion influx

T1 sequence (Q14524 other isoform, or with tags, fused parts or gaps): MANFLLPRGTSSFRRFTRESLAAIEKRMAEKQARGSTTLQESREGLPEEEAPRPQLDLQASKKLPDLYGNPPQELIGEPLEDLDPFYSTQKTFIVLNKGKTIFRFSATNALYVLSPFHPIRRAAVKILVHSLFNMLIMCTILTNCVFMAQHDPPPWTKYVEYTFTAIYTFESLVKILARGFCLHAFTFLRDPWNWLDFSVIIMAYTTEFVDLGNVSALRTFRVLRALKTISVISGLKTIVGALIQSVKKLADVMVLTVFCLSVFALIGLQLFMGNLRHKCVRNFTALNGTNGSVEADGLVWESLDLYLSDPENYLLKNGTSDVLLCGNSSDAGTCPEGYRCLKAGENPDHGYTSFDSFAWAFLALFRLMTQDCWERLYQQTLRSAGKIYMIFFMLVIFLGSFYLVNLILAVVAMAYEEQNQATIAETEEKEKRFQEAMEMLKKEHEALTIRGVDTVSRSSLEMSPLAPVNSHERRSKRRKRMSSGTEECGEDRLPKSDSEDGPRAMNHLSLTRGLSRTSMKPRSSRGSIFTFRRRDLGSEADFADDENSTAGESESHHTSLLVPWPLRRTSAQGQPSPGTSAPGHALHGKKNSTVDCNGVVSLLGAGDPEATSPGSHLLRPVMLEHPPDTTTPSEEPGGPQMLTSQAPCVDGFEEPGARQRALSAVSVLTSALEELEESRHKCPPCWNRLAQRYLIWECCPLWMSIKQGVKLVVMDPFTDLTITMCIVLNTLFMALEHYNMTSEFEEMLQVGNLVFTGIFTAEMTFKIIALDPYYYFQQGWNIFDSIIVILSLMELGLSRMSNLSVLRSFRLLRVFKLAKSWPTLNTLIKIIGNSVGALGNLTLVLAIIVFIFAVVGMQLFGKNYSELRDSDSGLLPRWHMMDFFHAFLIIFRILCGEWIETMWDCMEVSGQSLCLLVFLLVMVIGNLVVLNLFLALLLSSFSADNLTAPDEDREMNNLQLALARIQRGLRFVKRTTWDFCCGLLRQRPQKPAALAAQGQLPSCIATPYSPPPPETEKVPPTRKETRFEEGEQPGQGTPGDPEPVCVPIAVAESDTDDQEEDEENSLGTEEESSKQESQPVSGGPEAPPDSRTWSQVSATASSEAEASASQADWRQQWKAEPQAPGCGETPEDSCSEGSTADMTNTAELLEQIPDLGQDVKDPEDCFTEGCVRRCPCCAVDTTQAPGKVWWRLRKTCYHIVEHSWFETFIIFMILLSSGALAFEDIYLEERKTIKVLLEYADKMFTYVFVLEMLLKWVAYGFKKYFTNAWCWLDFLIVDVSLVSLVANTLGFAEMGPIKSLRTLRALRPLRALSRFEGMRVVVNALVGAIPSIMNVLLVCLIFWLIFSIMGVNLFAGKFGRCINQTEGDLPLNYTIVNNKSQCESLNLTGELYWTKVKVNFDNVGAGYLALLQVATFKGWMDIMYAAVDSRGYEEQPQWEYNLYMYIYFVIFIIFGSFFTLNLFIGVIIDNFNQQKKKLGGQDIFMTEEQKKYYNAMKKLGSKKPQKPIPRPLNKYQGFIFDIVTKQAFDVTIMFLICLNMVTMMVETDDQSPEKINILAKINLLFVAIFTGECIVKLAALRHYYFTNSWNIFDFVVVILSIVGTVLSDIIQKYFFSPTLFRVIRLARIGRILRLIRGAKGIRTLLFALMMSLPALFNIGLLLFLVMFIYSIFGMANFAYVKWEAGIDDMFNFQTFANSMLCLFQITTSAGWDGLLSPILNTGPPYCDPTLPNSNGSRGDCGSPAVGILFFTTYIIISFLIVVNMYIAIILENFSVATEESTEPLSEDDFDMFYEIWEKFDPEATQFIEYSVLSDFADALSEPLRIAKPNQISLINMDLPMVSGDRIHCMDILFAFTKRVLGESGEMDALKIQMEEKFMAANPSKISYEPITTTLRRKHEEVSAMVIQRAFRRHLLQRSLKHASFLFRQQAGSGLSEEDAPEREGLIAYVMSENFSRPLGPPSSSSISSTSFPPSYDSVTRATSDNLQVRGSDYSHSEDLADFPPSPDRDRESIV

Structure (SMILES) | IC50 (NaV1.5 [1]; [3]) | IC50 (NaV1.1) | IC50 (NaV1.6) | IC50 (NaV1.5 [1]) | IC50 (NaV1.5 [2])
COc1ccc(F)c(CNc2cc(F)c(S(=O)(=O)Nc3cscn3)cc2C)c1CN(C)C(C)C [Example 18, 2-fluoro-4-((6-fluoro-2-((isopropyl(methyl)amino)methyl)-3-methoxybenzyl)amino)-5-methyl-N-(thiazol-4-yl)benzenesulfonamide 2,2,2-trifluoroacetate] | 11.8 µM | > 30 µM | 0.016 µM |  | 
C[C@H](c1c(F)ccc(F)c1CNc1cc(F)c(S(=O)(=O)Nc2cscn2)c(F)c1)N1C2CCC1CC2 (single isomer, unassigned) [Example 15b] |  | > 30 µM | 0.821 µM | > 30 µM | 
O=S(=O)(Nc1cscn1)c1c(F)cc(NCc2c(F)cccc2CN2C3CCC2CC3)cc1F [Example 9, 4-((2-((7-azabicyclo[2.2.1]heptan-7-yl)methyl)-6-fluorobenzyl)amino)-2,6-difluoro-N-(thiazol-4-yl)benzenesulfonamide 2,2,2-trifluoroacetate] |  | 7.84 µM | 0.026 µM |  | 20.4 µM
COc1ccc(F)c(CNc2ccc(S(=O)(=O)Nc3cscn3)c(F)c2F)c1CN1C2CCC1CC2 [Example 12, 4-((2-((7-azabicyclo[2.2.1]heptan-7-yl)methyl)-6-fluoro-3-methoxybenzyl)amino)-2,3-difluoro-N-(thiazol-4-yl)benzenesulfonamide 2,2,2-trifluoroacetate] |  | > 30 µM | 0.054 µM |  | > 30 µM
Cc1c(NCc2c(F)cccc2CN2C3CCC2CC3)ccc(S(=O)(=O)Nc2ccon2)c1F [Example 5, 4-((2-((7-azabicyclo[2.2.1]heptan-7-yl)methyl)-6-fluorobenzyl)amino)-2-fluoro-N-(isoxazol-3-yl)-3-methylbenzenesulfonamide 2,2,2-trifluoroacetate] |  | > 30 µM | 0.617 µM |  | > 30 µM
C[C@@H](c1c(F)ccc(F)c1CNc1cc(F)c(S(=O)(=O)Nc2cscn2)c(F)c1)N1C2CCC1CC2 (single isomer, unassigned) [Example 15a] |  | > 30 µM | 0.53 µM | > 30 µM | 
COc1ccc(F)c(CNc2cc(F)c(S(=O)(=O)Nc3cscn3)c(F)c2)c1CN(C)C(C)C [Example 2, 2,6-difluoro-4-((6-fluoro-2-((isopropyl(methyl)amino)methyl)-3-methoxybenzyl)amino)-N-(thiazol-4-yl)benzenesulfonamide] | 28.3 µM | 27.5 µM | 0.027 µM |  | 
Cc1c(NCc2c(F)cccc2CN2C3CCC2CC3)ccc(S(=O)(=O)Nc2cscn2)c1F [Example 7, 4-((2-((7-azabicyclo[2.2.1]heptan-7-yl)methyl)-6-fluorobenzyl)amino)-2-fluoro-3-methyl-N-(thiazol-4-yl)benzenesulfonamide 2,2,2-trifluoroacetate] |  | 7.44 µM | 0.181 µM |  | 21.3 µM
O=S(=O)(Nc1cscn1)c1ccc(NCc2c(F)cccc2CN2C3CCC2CC3)c(Cl)c1F [Example 6, 4-((2-((7-azabicyclo[2.2.1]heptan-7-yl)methyl)-6-fluorobenzyl)amino)-3-chloro-2-fluoro-N-(thiazol-4-yl)benzenesulfonamide 2,2,2-trifluoroacetate] |  | 5.23 µM | 0.095 µM |  | 15.3 µM
CC(C)Oc1ccc(F)c(CNc2cc(F)c(S(=O)(=O)Nc3cscn3)c(F)c2)c1CN(C)C(C)C [Example 8, 2,6-difluoro-4-((6-fluoro-3-isopropoxy-2-((isopropyl(methyl)amino)methyl)benzyl)amino)-N-(thiazol-4-yl)benzenesulfonamide] | 11.1 µM | 28 µM | 0.026 µM |  | 
O=S(=O)(Nc1cscn1)c1c(F)cc(NCc2c(F)ccc(F)c2CN2C3CCC2CC3)cc1F [Example 10, 4-((2-((7-azabicyclo[2.2.1]heptan-7-yl)methyl)-3,6-difluorobenzyl)amino)-2,6-difluoro-N-(thiazol-4-yl)benzenesulfonamide] |  | 7.93 µM | 0.028 µM |  | 25.4 µM
Cc1c(NCc2c(F)cccc2CN2C3CCC2CC3)cc(F)c(S(=O)(=O)Nc2ccon2)c1F [Example 4, 4-((2-((7-azabicyclo[2.2.1]heptan-7-yl)methyl)-6-fluorobenzyl)amino)-2,6-difluoro-N-(isoxazol-3-yl)-3-methylbenzenesulfonamide] |  | 17 µM | 0.047 µM |  | > 30 µM
COc1ccc(F)c(CNc2ccc(S(=O)(=O)Nc3cscn3)c(F)c2F)c1CN(C)C(C)C [Example 16, 2,3-difluoro-4-((6-fluoro-2-((isopropyl(methyl)amino)methyl)-3-methoxybenzyl)amino)-N-(thiazol-4-yl)benzenesulfonamide] | 9.46 µM | > 30 µM | 0.031 µM |  | 
COc1ccc(F)c(CNc2cc(F)c(S(=O)(=O)Nc3cscn3)cc2Cl)c1CN(C)C(C)C [Example 17, 5-chloro-2-fluoro-4-((6-fluoro-2-((isopropyl(methyl)amino)methyl)-3-methoxybenzyl)amino)-N-(thiazol-4-yl)benzenesulfonamide 2,2,2-trifluoroacetate] | 16.3 µM | > 30 µM | 0.012 µM |  | 
O=S(=O)(Nc1cscn1)c1ccc(NCc2c(F)cccc2CN2C3CCC2CC3)c(F)c1F [Example 3, 4-((2-((7-azabicyclo[2.2.1]heptan-7-yl)methyl)-6-fluorobenzyl)amino)-2,3-difluoro-N-(thiazol-4-yl)benzenesulfonamide] |  | > 30 µM | 0.142 µM |  | > 30 µM
COc1ccc(F)c(CNc2cc(F)c(S(=O)(=O)Nc3cscn3)c(F)c2)c1CN1C2CCC1CC2 [Example 11, 4-((2-((7-azabicyclo[2.2.1]heptan-7-yl)methyl)-6-fluoro-3-methoxybenzyl)amino)-2,6-difluoro-N-(thiazol-4-yl)benzenesulfonamide 2,2,2-trifluoroacetate] |  | 5.91 µM | 0.002 µM |  | 27.5 µM
O=S(=O)(Nc1ccsn1)c1c(F)cc(NCc2c(F)cccc2CN2C3CCC2CC3)cc1F [Example 1, 4-((2-((7-azabicyclo[2.2.1]heptan-7-yl)methyl)-6-fluorobenzyl)amino)-2,6-difluoro-N-(isothiazol-3-yl)benzenesulfonamide] |  | 9.6 µM | 0.015 µM |  | > 30 µM
O=S(=O)(Nc1ccsn1)c1ccc(NCc2c(F)cccc2CN2C3CCC2CC3)c(F)c1F [Example 13, 4-((2-((7-azabicyclo[2.2.1]heptan-7-yl)methyl)-6-fluorobenzyl)amino)-2,3-difluoro-N-(isothiazol-3-yl)benzenesulfonamide 2,2,2-trifluoroacetate] |  | 23.7 µM | 0.27 µM |  | > 30 µM
CC(c1c(F)ccc(F)c1CNc1cc(F)c(S(=O)(=O)Nc2cscn2)c(F)c1)N1C2CCC1CC2 (stereo not drawn) [Example 14, 4-((2-(1-(7-azabicyclo[2.2.1]heptan-7-yl)ethyl)-3,6-difluorobenzyl)amino)-2,6-difluoro-N-(thiazol-4-yl)benzenesulfonamide 2,2,2-trifluoroacetate] |  | > 30 µM | 0.653 µM |  | 12.8 µM
